From patent US10933033B2, “Composition for preventing or reducing nephrotoxicity and use thereof” (KOREA INSTITUTE OF SCIENCE AND TECHNOLOGY, priority 2018, dated 2021)

Columns and labels:
LLC-PK1 cells [1] = experiment: Protective effect against cisplatin nephrotoxicity, cell viability (CCK-8); format: cell-based; conditions: for effect on cell viability that had been reduced with cisplatin: 25 μM cisplatin, LLC-PK1, concentration-dependent; for viability at 5 µg/mL / viability at 10 µg/mL / viability at 25 µg/mL / viability at 50 µg/mL / viability at 100 µg/mL / viability at 10 µM: Sus scrofa, LLC-PK1
Method: First, LLC-PK1 cells were cultured in a Dulbecco's modified Eagle's medium (DMEM) (available from Cellgro, Manassas, Va., USA) in which 10% of fetal bovine serum (FBS), 100 units/mL of penicillin G, and 100 μg/mL of streptomycin were added, in an incubator (95% air and 5% CO2) maintained at about 37° C. The used FBS, penicillin G, and streptomycin were purchased from Gibco BRL Life Technologies Inc. The cultured LLC-PK1 cells were dispensed in a 96-well plate at a density of 1×10^4 cells in 100 μL of the same DMEM medium per each well and then stabilized for about 22 hours.
After 1 hour, absorbance at a detection wavelength of 450 nm was measured using a BIO-TEK microplate reader (available from Winooski, Vt., USA) to thereby measure cell viability.

LLC-PK1 cells [2] = experiment: Image-based cell analysis of apoptosis (Annexin V / PI, Tali cytometer); conditions: for Apoptosis (%): 2 h pre-incubation, then 25 μM cisplatin for 24 h, LLC-PK1
Method: The cultured LLC-PK1 cells in DMEM were dispensed in a 6-well plate at a density of 4×10^5 cells in 3 mL of the same DMEM medium per each well and then incubated under the same conditions for 24 hours to stabilize the cells.
After incubation under the same conditions for about 24 hours, the cells were collected using trypsin, washed once with phosphate-buffered saline (PBS), resuspended in 100 μL of annexin-binding buffer ([…], 140 mM NaCl, […], pH 7.4) to reach a cell number of about 5×10^5 to about 5×10^6 cells/mL, and then mixed with 5 μL of Annexin V Alexa Fluor 488 and left in the dark at room temperature for about 20 minutes to fix and stain the cells. The resulting cell suspension was centrifuged to discard the supernatant and collect precipitated cell pellets. The precipitated cell pellets were resuspended in 100 μL of annexin-binding buffer to obtain a resuspension.
Next, 1 μL of propidium iodide (PI) was added to the resuspension, mixed thoroughly, and then left in the dark at room temperature for about 1 minute to about 5 minutes to fix and stain the cells. The stained cells were analyzed using a Tali Image-based cytometer and TaliPCApp (version 1.0) software.
Cells were divided into live cells (annexin V-negative/PI-negative), early apoptotic cells (annexin V-positive/PI-negative), and late apoptotic or necrotic cells (annexin V-positive/PI-positive), and total apoptotic cells were expressed as a ratio of annexin V-positive cells to PI-negative or PI-positive cells.

| Compound | effect on cell viability that had been reduced with cisplatin (LLC-PK1 cells [1]) | viability at 5 µg/mL (LLC-PK1 cells [1]) | viability at 10 µg/mL (LLC-PK1 cells [1]) | viability at 25 µg/mL (LLC-PK1 cells [1]) | viability at 50 µg/mL (LLC-PK1 cells [1]) | viability at 100 µg/mL (LLC-PK1 cells [1]) | viability at 10 µM (LLC-PK1 cells [1]) | apoptosis of the LLC-PK1 cells caused by cisplatin (LLC-PK1 cells [2]; 5 μM and 10 μM, 25 μM cisplatin) | Apoptosis (%) (LLC-PK1 cells [2]; 5 μM) | Apoptosis (%) (LLC-PK1 cells [2]; 10 μM) |
| --- | --- | --- | --- | --- | --- | --- | --- | --- | --- | --- |
| Oc1cccc2c(-c3ccc(O)c4c(O)cccc34)ccc(O)c12 [BNT, 1,1′-binaphthalene-4,4′,5,5′-tetrol] | significantly increase cell viability | 63.3% | 65.1% | 65.4% | 71.5% | 75.1% |  |  |  |  |
| O=C1CC2C(=C3c4c2ccc(O)c4[C@@H](O)C[C@@H]3O)c2cccc(O)c21 (some centres unmarked) [Hypoxylonol C] | significantly increase cell viability | 76.9% | 86.6% | 89.3% | 89.5% | 92.5% | ≥ 85% |  |  |  |
| O=C1CC2C(=C3c4c2ccc(O)c4[C@H](O)C[C@@H]3O)c2cccc(O)c21 (some centres unmarked) [Hypoxylonol F] | significantly increase cell viability | 86.4% | 90.9% | 92.2% | 92.3% | 94.4% | ≥ 90% | significantly reduced | 26.3% | 6.6% |
